Literature values, collected in patent US20160022623A1, “COMPOSITION AND USE” (THE UNIVERSITY OF NOTTINGHAM, priority 2013, published 2016).

Legend:
[1] = 24 weeks
[2] = compared to control (euglycaemic hyperinsulinaemia)
[3] = morning following the clamp, overnight fast

Increase in skeletal muscle total carnitine content (intravenous infusion, 6 h clamp, at rest): 15%
Increase in muscle total carnitine content compared to carbohydrate feeding alone ([1]; 1.36 g L-carnitine with 80 g carbohydrate beverage twice daily): 30%
Increase in muscle free carnitine availability ([1]; low intensity exercise (50% VO2max), vs Control): 80%
Structure (SMILES): C[N+](C)(C)C[C@H](O)CC(=O)[O-] [L-carnitine]
Decrease in insulin stimulated muscle PDC activation [2]: 30%
Decrease in muscle lactate accumulation [2]: 40%
Increase in muscle glycogen content [3]: 30%
Increase in muscle long-chain acyl-CoA content [3]: 40%
Reduction in muscle glycogen utilisation ([1]; low intensity exercise (50% VO2max)): 50%
